Read-outs that look alike come from different tables or passages of the source.
Legend:
[1] = system: RH tachyzoites of Toxoplasma gondii; assay: Viability of extracellular tachyzoites, Sytox Green exclusion test; type: cell-based
Method: RH tachyzoites of Toxoplasma gondii were extracted in PBS solution at pH 7.4 from intraperitoneal fluid of infected CD1 mice on the third day of infection and centrifuged for ten minutes at 260g. Purified parasites were used within 4 h after their isolation.
The viability of the parasites was determined from staining with Sytox Green® fluorescent dye exclusion test. Purified tachyzoites (1 × 10^6) were incubated for one hour at room temperature with PBS solutions of the coordination compounds or the free ligands at concentrations of 40, 20, 10, 5, and 2.5 µM (0.1% DMSO), in a volume final of 1 mL. After the incubation time, the samples were centrifuged for 10 min at 250g, the medium was removed and 20 µL of Sytox Green® was added after 15 min of incubation for differentiate dead parasites in a Neubauer chamber. The assays were performed in triplicate. The half maximal inhibitory concentration (IC50) was calculated by Boltzmann regression analysis and expressed as mean ± standard error of three replicates. Based on the results the tachyzoites were incubated under the same conditions with the coordination compounds [Cu(onz)2Cl2] and [Cu(onz)2Br2] at their respective IC50 values, Sytox Green® was then added, and they were observed by fluorescence microscopy. Sulfadiazine was used as positive control.
Viability assays were performed against tachyzoites of Toxoplasma gondii. The RH strain was used to evaluate the effect of different concentrations (namely, 2.5, 5, 10, 20 and 40 µM) of the coordination compounds and the free 5-nitroimidazole against the tachyzoites. The evaluation were performed in PBS buffer (pH 7.4) with Sytox Green® exclusion test, which allows differentiating dead from live tachyzoites, since the intact cell membrane of alive ones is not stained.

ct-DNA [2] = assay: Competitive displacement of Hoechst 33258 from DNA (fluorescence); type: binding, calf; conditions: Hoechst 33258 1.9 µM, [DNA]b = 30 µM, compound 0-50 µM, 1 h
Method: (§1) For the UV–Vis, fluorescence and circular dichroism assays the concentration of ct-DNA was determined on a Varian Cary 100 Scan spectrophotometer from the absorption at 260 nm and the corresponding molar absorptivity of 6600 M^−1 cm^−1 (nucleobase concentration). The stock solutions of the coordination compounds and the free ligands were prepared in cacodylate/NaCl buffer (1 mM cacodylic acid and 20 mM sodium chloride) at pH 7.25. The final samples contained a DMSO concentration of 0.2%.
(§2) Emission intensity of the dyes DNA-intercalator ethidium bromide, EB (λexc = 514 nm) and the minor-groove binder Hoechst 33,258 (λexc = 350 nm) was measured on iHR320 HORIBA JOBIN YVON spectrofluorometer. The samples contained 15 µM (in base pairs) of ct-DNA and 75 µM of EB […] in cacodylate/NaCl buffer. The respective dye was incubated for 30 min with ct-DNA to allow its binding to the biomolecule. Subsequently, increasing amounts of coordination compounds (0–50 µM) were added up to a final volume of 2 mL, and the samples were incubated for 1 h at 37 °C. The fluorescence spectra of all samples were recorded at room temperature. The affinity of the compounds for ct-DNA compared to EB was evaluated through the Stern–Volmer quenching constant Ksv, from Eq. 3:3 I0/I=1+Ksvcompound where I0 and I are the emission intensities in absence and the presence of the compound, respectively.
Competitive binding assays were carried out with Hoechst 33,258. This dye binds to B-DNA, especially those with an AT-rich sequence giving a fluorescent signal at 458 nm when excited at 350 nm. As for to the EB assays, DNA (30 µM) was incubated for 30 min with Hoechst 33,258 (1.9 µM) and increasing amounts of the coordination compounds were subsequently added. In all cases, fluorescence quenching was observed (Fig. 9). As previously, the Ksv constants were determined (Fig. 9c and Table 4). The copper(II) compounds show Ksv values in the […] range (Table 4), indicating a groove binding behavior. For the zinc(II) compounds, the Ksv values are two orders of magnitude lower indicating weaker interactions, must likely of electrostatic nature.

[3] = system: mouse fibroblast L929 cells; assay: Cytotoxic activity in healthy host cells; type: cell-based
Method: The IC50 values obtained for [Cu(onz)2Cl2] (210.2 μM) and [Cu(onz)2Br2]

ct-DNA [4] = assay: Competitive displacement of ethidium bromide from DNA (fluorescence); type: binding, calf; conditions: EB 75 µM, [DNA]b = 30 µM, compound 0-50 µM, 1 h
Method: as §1, §2
With the aim to corroborate the binding mode of the coordination compounds with DNA competitive displacement assays were carried out by florescence spectroscopy. The fluorescence of ethidium bromide (EB) increases when it intercalates between DNA base pairs, forming an EB-DNA adduct. Competitive binding assays will lead to a decrease of the fluorescence intensity (λexc = 514 nm; λem = 610 nm) if the interacting molecule is capable of displacing EB from the DNA helix. Solutions containing constant concentrations of DNA (30 µM) and EB (75 µM) were incubated for 30 min. Then the coordination compounds to be tested were added in a concentration in the range of 0–50 µM (corresponding to [complex]/[DNA] ratios between = 0 and 3.3), and fluorescence spectra were recorded after 1 h of incubation.

[5] = system: young adult male ICR mice; assay: Acute toxicity (LD50), intraperitoneal; type: in vivo, mouse; conditions: single dose
Method: For the acute toxicity assays, young adult male ICR mice with an average weight of 28 g and a variation of no more than ± 3 g were used. The handling of the animals was carried out in accordance with the committee for the care and use of laboratory animals (CICUAL) from the Faculty of Chemistry, UNAM.
A stock solution with a concentration of 25 mg mL^−1 of [Cu(onz)2Cl2] and [Cu(onz)2Br2] was prepared with water for injection. In the case of [Cu(onz)2Br2], 0.1% of DMSO was added. For the pharmacological profile three mice were used for each dose of 1, 10 and 100 mg kg^−1 per compound. For the acute toxicity assays five mice were treated for each dose (10, 50, 75 and 100 mg kg^−1) per compound. […] A detailed clinical observation was made 24 h after administration. The doses were administered intraperitoneally. The data obtained were used to calculate the mean lethal dose using the software Prism 13.0 and SPSS 29.0 [37, 38].
Based on the anti-toxoplasma results the medial lethal dose (LD50) for [Cu(onz)2Cl2] and [Cu(onz)2Br2] were determined intraperitoneally using doses of 10, 50, 75 and 100 mg kg^−1 per compound in young adult male ICR mice.

Entamoeba histolytica = conditions: cited from earlier work
[6] = 1 h, PBS pH 7.4, mean ± standard error of three replicates, read-out: IC50
[7] = viability vs concentration, read-out: IC50 (Boltzman Fit, Fig. S6)

Row | SMILES | IC50 [1, 6] [µM] | IC50 [1, 7] [µM] | Hoechst 33258 Ksv (ct-DNA [2]) [M⁻¹] | IC50 [3] [µM] | Ethidium bromide Ksv (ct-DNA [4]) [M⁻¹] | LD50 [5] [mg/kg] | MIC (Entamoeba histolytica) [µM]
1 | Cc1ncc([N+](=O)[O-])n1CC(O)CCl.Cc1ncc([N+](=O)[O-])n1CC(O)CCl.[Cl-].[Cl-].[Cu+2] (stereo not drawn) [[Cu(onz)2Cl2]] | 8.49 ± 0.64 | 8.49 | 1.2e+06 | 210 | 26000 | 49.35 | –
2 | Cc1ncc([N+](=O)[O-])n1CCCl.Cc1ncc([N+](=O)[O-])n1CCCl.[Br][Zn][Br] [[Zn(cenz)2Br2]] | 40 ± 0.96 | 40 | 120000 | – | 1100 | – | –
3 | Cc1ncc([N+](=O)[O-])n1CC(O)CCl.Cc1ncc([N+](=O)[O-])n1CC(O)CCl.[Cl][Zn][Cl] (stereo not drawn) [[Zn(onz)2Cl2]] | – | – | 38000 | – | 4500 | – | 6.25
4 | Cc1n(CC(O)CCl)c([N+](=O)[O-])c[n+]1[Cu-2]([Br])([Br])[n+]1cc([N+](=O)[O-])n(CC(O)CCl)c1C (stereo not drawn) [[Cu(onz)2Br2]] | 2.73 ± 0.34 | 2.73 | 2.5e+06 | 180 | 43000 | 83.24 | –
5 | Cc1ncc([N+](=O)[O-])n1CCCl.Cc1ncc([N+](=O)[O-])n1CCCl.[Br][Cu][Br] [[Cu(cenz)2Br2]] | – | – | 2.1e+06 | – | 35000 | – | –
6 | Cc1ncc([N+](=O)[O-])n1CCCl.Cc1ncc([N+](=O)[O-])n1CCCl.[Cl][Cu][Cl] [[Cu(cenz)2Cl2]] | 30.55 ± 0.25 | 30.6 | 1.6e+06 | – | – | – | –

— article PMC11001709, “Anti-toxoplasma activity and DNA-binding of copper(II) and zinc(II) coordination compounds with 5-nitroimidazole-based ligands” (Journal of Biological Inorganic Chemistry, 2023)
